From BindingDB's records for PubMed 9336327 (Preclinical R & D, Astra Arcus, 1997)

Assays:
[1] = target: D(3) dopamine receptor (Homo sapiens, UniProt P35462)
[2] = target: 5-hydroxytryptamine receptor 2A (Rattus norvegicus, UniProt P14842)
[3] = target: Histamine H2 receptor (Cavia porcellus, UniProt P47747)
[4] = target: D(2) dopamine receptor (Homo sapiens, UniProt P14416)
[5] = target: Gamma-aminobutyric acid receptor subunit alpha-1 (Rattus norvegicus, UniProt P62813)
[6] = target: T1, Alpha-2C adrenergic receptor (Rattus norvegicus, UniProt P22086)
T1 sequence (P22086 whole entry): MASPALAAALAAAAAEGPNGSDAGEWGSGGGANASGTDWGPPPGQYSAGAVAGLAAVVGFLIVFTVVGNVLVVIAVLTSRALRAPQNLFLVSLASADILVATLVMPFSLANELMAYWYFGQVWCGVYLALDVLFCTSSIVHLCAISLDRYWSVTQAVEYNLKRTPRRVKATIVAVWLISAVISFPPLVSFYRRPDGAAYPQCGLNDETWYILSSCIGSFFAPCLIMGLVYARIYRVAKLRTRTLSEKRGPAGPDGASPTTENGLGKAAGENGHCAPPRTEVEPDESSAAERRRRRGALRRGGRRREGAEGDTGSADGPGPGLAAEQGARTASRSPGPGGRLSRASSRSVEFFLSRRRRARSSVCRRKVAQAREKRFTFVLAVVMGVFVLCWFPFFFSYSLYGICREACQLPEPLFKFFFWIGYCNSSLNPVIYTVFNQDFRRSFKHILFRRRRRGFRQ

[7] = target: T2, Muscarinic acetylcholine receptor M2 (Rattus norvegicus, UniProt P10980)
T2 sequence (P10980 whole entry): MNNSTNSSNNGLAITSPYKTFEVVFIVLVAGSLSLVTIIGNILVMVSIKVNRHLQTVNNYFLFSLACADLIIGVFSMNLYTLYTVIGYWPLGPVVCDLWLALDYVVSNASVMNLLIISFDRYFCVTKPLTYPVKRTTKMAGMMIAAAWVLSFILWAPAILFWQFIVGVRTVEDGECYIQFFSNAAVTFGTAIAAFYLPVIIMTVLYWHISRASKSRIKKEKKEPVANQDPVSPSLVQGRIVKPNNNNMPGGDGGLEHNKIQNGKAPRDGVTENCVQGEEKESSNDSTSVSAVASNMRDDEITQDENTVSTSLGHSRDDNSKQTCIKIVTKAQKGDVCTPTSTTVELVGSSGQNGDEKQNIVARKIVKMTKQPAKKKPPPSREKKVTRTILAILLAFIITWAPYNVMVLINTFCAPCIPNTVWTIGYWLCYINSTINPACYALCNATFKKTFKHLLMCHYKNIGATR

[8] = target: D(1A) dopamine receptor (Rattus norvegicus, UniProt P18901)
Chain of D(1A) dopamine receptor (P18901 whole entry): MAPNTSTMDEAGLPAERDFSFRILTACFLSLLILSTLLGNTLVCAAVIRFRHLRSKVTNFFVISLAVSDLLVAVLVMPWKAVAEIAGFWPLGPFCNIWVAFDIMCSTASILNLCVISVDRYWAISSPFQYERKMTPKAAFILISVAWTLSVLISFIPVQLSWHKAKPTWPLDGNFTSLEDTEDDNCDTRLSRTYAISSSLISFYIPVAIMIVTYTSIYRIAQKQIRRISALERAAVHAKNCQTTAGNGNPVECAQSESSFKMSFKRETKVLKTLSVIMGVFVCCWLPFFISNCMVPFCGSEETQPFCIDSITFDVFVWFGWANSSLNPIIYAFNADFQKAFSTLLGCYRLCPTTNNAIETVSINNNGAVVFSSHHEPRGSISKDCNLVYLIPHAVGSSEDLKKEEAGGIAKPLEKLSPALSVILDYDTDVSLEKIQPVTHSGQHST

[9] = target: T3, Galanin peptides (Rattus norvegicus, UniProt P10683)
T3 sequence (P10683 whole entry): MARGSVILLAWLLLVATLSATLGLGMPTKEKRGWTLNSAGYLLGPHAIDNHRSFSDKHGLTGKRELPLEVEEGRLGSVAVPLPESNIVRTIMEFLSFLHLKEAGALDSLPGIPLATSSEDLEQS

[10] = target: Glutamate receptor 3 (Rattus norvegicus, UniProt P19492)
Chain of Glutamate receptor 3 (P19492 whole entry): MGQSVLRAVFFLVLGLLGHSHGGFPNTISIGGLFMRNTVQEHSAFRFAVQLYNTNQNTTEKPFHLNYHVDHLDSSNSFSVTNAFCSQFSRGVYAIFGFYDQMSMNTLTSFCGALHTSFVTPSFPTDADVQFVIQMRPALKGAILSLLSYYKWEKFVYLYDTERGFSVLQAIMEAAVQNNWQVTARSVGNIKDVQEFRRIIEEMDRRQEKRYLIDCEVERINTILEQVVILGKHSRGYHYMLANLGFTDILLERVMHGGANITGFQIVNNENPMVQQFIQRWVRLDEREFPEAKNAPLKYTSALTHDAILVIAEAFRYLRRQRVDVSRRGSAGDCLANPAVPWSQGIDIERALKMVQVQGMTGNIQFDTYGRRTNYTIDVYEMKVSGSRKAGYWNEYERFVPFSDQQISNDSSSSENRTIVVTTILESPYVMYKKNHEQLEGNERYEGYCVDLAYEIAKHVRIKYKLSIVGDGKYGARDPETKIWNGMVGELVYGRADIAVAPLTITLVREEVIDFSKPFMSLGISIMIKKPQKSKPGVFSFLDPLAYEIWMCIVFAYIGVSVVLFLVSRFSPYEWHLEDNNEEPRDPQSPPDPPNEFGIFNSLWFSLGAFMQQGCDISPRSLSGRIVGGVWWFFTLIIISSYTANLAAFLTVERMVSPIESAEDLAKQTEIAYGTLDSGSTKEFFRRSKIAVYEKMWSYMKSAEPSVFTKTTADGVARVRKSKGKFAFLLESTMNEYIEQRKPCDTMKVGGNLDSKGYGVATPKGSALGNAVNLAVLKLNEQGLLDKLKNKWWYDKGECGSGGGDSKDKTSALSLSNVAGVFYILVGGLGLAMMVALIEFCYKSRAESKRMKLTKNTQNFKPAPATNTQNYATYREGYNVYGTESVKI

[11] = target: Glutamate receptor ionotropic, NMDA 1 (Rattus norvegicus, UniProt P35439)
[12] = target: Histamine H1 receptor (Rattus norvegicus, UniProt P31390)
Chain of Histamine H1 receptor (P31390 whole entry): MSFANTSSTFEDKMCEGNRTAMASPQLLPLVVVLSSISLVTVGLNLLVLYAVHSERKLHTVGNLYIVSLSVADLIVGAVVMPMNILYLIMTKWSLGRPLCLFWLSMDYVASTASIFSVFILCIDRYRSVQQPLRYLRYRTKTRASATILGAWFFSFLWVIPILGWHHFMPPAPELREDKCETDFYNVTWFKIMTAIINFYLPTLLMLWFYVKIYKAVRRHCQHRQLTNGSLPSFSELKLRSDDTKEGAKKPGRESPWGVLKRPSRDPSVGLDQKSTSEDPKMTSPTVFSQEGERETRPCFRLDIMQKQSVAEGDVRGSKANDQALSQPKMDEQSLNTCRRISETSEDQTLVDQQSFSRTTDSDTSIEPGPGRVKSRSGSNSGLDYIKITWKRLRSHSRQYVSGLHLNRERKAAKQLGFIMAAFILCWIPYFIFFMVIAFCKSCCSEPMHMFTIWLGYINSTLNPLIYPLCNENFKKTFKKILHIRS

[13] = target: Nicotinic acetylcholine receptor (Rattus leucopus, UniProt Q62594)
Chain of Nicotinic acetylcholine receptor (Q62594 whole entry): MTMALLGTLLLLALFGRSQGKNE

[14] = target: Beta-2 adrenergic receptor (Rattus norvegicus, UniProt P10608)
Chain of Beta-2 adrenergic receptor (P10608 whole entry): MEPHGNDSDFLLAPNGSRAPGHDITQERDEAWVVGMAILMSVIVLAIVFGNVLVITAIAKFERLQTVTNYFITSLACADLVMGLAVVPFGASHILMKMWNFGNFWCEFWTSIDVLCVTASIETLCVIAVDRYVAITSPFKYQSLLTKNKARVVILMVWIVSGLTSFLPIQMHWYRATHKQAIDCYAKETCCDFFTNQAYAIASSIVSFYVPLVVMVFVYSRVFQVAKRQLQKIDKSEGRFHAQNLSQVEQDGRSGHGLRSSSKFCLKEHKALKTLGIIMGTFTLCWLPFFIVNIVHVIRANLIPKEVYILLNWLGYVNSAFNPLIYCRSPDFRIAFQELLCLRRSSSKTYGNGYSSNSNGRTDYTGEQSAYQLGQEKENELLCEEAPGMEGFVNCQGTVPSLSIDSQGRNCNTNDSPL

[15] = target: 5-hydroxytryptamine receptor 7 (Rattus norvegicus, UniProt P32305)
Chain of 5-hydroxytryptamine receptor 7 (P32305 whole entry): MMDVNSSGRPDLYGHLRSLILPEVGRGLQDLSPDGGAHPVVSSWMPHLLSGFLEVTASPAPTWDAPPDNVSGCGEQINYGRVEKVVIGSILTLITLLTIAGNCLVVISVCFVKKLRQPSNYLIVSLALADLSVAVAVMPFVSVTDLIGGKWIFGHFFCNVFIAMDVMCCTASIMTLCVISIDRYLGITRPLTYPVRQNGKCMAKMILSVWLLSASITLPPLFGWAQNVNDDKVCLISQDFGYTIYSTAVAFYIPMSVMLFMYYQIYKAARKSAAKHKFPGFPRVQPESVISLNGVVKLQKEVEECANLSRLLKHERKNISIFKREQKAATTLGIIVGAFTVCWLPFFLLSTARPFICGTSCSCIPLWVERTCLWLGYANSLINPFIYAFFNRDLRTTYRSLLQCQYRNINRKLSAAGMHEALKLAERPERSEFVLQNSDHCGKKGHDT

[16] = target: T4, 5-hydroxytryptamine receptor 1A (Rattus norvegicus, UniProt P19327)
T4 sequence (P19327 whole entry): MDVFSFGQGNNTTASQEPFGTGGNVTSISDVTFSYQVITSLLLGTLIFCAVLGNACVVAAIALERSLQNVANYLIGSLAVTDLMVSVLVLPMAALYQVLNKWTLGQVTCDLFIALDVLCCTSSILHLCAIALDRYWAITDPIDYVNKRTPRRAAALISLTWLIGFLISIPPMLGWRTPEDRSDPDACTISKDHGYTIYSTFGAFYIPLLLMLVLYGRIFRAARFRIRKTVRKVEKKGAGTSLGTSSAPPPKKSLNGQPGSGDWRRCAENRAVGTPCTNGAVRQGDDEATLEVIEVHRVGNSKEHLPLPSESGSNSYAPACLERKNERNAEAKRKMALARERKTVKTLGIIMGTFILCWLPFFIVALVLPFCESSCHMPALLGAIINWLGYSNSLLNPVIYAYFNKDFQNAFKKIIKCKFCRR

[17] = target: 5-hydroxytryptamine receptor 1B (Rattus norvegicus, UniProt P28564)
[18] = target: T5, Alpha-1A adrenergic receptor (Rattus norvegicus, UniProt P43140)
T5 sequence (P43140 whole entry): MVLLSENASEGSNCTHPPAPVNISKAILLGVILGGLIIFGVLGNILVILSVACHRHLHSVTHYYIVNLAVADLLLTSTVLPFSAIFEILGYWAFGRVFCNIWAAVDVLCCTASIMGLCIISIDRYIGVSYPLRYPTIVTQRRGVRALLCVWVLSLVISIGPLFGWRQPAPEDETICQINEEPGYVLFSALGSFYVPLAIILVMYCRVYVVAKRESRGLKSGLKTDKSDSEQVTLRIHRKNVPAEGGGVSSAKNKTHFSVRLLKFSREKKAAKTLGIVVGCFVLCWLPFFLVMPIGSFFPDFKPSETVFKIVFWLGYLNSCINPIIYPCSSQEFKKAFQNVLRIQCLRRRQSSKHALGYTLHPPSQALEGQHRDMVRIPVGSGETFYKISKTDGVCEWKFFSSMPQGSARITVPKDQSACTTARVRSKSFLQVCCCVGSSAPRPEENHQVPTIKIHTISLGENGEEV

[19] = target: 5-hydroxytryptamine receptor 6 (Rattus norvegicus, UniProt P31388)

Chain of Gamma-aminobutyric acid receptor subunit alpha-1 (P62813 whole entry): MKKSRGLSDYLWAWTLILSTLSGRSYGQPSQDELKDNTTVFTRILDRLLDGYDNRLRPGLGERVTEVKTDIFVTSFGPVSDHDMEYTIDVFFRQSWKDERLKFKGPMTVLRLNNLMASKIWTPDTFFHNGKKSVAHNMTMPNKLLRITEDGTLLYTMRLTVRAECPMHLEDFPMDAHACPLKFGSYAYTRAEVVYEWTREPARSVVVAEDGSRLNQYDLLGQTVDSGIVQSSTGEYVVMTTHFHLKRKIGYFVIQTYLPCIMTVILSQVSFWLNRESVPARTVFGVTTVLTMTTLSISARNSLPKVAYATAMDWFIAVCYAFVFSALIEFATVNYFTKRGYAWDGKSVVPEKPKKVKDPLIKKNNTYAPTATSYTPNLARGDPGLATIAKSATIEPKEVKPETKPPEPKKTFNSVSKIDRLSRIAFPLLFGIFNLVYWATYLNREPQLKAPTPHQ
Chain of D(2) dopamine receptor (P14416 whole entry): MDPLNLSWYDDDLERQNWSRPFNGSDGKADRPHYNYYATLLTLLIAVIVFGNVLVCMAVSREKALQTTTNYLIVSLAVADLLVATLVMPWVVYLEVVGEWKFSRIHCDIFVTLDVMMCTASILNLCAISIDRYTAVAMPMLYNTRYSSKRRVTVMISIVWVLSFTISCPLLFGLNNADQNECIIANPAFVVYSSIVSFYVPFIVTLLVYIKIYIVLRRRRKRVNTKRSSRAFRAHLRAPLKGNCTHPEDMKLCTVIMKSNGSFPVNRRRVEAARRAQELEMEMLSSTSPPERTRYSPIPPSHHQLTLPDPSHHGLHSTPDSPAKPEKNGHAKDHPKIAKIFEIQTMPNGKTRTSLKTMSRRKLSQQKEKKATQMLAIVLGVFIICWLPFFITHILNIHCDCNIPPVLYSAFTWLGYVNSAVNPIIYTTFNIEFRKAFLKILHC
Chain of D(3) dopamine receptor (P35462 as listed by the source): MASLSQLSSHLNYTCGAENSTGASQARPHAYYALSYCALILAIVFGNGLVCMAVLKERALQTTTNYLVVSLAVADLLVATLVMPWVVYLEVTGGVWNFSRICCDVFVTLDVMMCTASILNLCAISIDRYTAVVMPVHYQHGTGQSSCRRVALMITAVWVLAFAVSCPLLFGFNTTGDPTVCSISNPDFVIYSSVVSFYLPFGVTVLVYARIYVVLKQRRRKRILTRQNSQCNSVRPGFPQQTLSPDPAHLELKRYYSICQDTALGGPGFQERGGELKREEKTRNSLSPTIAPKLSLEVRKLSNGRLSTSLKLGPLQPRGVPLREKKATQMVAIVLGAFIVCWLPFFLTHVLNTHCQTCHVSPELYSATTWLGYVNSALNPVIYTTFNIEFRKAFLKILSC
Chain of 5-hydroxytryptamine receptor 2A (P14842 whole entry): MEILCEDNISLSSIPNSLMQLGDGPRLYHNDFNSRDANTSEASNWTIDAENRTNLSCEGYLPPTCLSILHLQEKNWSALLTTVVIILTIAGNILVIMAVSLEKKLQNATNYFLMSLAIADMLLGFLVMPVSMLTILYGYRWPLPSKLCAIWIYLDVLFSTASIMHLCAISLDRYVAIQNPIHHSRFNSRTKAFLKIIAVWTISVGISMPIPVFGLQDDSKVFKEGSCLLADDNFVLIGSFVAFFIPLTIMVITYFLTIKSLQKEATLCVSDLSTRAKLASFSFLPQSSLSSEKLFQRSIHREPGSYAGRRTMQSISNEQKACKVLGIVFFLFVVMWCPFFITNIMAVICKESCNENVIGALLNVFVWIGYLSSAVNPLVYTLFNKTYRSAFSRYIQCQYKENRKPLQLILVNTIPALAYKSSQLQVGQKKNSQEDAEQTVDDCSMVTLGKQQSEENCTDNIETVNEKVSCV
Chain of Histamine H2 receptor (P47747 whole entry): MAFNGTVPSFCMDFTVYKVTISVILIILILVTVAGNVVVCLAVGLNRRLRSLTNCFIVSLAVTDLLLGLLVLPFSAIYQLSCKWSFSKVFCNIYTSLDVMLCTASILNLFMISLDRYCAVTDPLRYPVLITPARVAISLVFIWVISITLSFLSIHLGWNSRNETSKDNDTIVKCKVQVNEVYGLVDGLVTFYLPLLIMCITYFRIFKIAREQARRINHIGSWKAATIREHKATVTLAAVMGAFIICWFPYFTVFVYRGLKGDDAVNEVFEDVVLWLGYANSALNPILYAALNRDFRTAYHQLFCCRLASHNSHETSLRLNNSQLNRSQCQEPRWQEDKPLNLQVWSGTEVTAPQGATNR

| Ki [1] [nM] | Ki [2] [nM] | Ki [3] [nM] | Ki [4] [nM] | Ki [5] [nM] | Ki [6] [nM] | Ki [7] [nM] | Ki [8] [nM] | Ki [9] [nM] | Ki [10] [nM] | Ki [11] [nM] | Ki [12] [nM] | Ki [13] [nM] | Ki [14] [nM] | Ki [15] [nM] | Ki [16] [nM] | Ki [17] [nM] | Ki [18] [nM] | Ki [19] [nM] | Compound |
| --- | --- | --- | --- | --- | --- | --- | --- | --- | --- | --- | --- | --- | --- | --- | --- | --- | --- | --- | --- |
| 67 | 1100 | > 10000 | 79 | > 10000 | 1000 | 1000 | 1000 | 2600 | > 10000 | > 10000 | > 10000 | > 10000 | 1000 | – | – | – | – | – | COc1ccccc1N1CCN(CCN(C(=O)C2CCCCC2)c2ccccn2)CC1 |
| 1000 | > 10000 | > 10000 | 1000 | > 10000 | 1000 | 1000 | 1000 | 2600 | > 10000 | > 10000 | > 10000 | > 10000 | 340 | 1900 | 0.59 | 1000 | 260 | > 10000 | NC(=O)c1ccc(F)c2c1CC(N(C1CCC1)C1CCC1)CO2 (stereo not drawn) [CAS_3055171] |
